# Data taken from patent US12599582B2, “Pyrrole compounds” (ALIGOS THERAPEUTICS, INC., priority 2019, dated 2026).
# Tested on: HBV
# Assay: HBV-DNA Antiviral Assay Using HepG2.2.15 Cells (extracellular HBV DNA by qPCR)
# Type: cell-based, hepatitis B virus (HBV)
# Conditions: HBV DNA inhibition, HepG2.2.15 cells, extracellular HBV DNA by qPCR; read-out: EC50
# Procedure: The following assay procedure describes the HBV antiviral assay. This assay uses HepG2.2.15 cells, which have been transfected with HBV genome, and extracellular HBV DNA quantification as endpoint. Cell viability is assessed in parallel by measuring the intracellular ATP content using the CellTiter-Glo® reagent from Promega.
# On day 0, HepG2.2.15 cells were seeded in 96-well plates at a density of 6.0×10^4 cells/well (0.1 mL/well). The cells were incubated at 37° C. and 5% CO2.
# On day 1, the test articles were diluted and added to cell culture wells (8 concentrations, 4-fold dilution, in duplicate). GLS4, Tenofovir and Sorafenib were used as reference compounds. 100 μL of culture medium containing the compounds was added to the plate, and the final total volume per well was 200 μL. The final concentration of DMSO in the culture medium was 0.5%. The plate map of compound treatment is shown below. The cells were cultured at 37° C. and 5% CO2 for 3 days.
# On day 4, the plates were refreshed with culture media with compounds.
# On day 7, cell viability was assessed using the CellTiter-Glo®, and the cell culture supernatants were collected for determination of HBV DNA by qPCR.
# Extracellular DNA was isolated with QIAamp 96 DNA Blood Kit per the manufacturer's manual. HBV DNA was then quantified by qPCR with HBV specific primers and probes as specified in Table 1 using the FastStart Universal MasterMix from Roche on an ABI-7900HT. The PCR cycle program consisted of 95° C. for 10 min, followed by 40 cycles at 95° C. for 15 sec and 60° C. for 1 min.
# A DNA standard was prepared by dilution of the pAAV2 HBV1.3 plasmid with concentrations ranging from 10 to 1×10^7 copies/uL and used to generate a standard curve by plotting Ct value vs. the concentration of the HBV plasmid DNA standard. The quantity of HBV DNA in each sample was determined by interpolating from the standard curve.
# Cell viability was calculated as follows: % Cell viability=(luminescence value of test sample−average luminescence value of blank)/(average luminescence value of 0.5% DMSO control−average luminescence of blank)×100%. HBV DNA inhibition was calculated as follows: 100−(HBV DNA copy number of test sample−HBV DNA copy number of ETV)/HBV DNA copy number of 0.5% DMSO control−HBV DNA copy number of ETV)×100%. The CC50, EC50 and EC90 values were determined by dose-response curves fitted by GraphPad Prism using “log (agonist) vs. response—Variable slope”.
row,Structure (SMILES),EC50 [nM]
1,C#C[C@H](NC(=O)C(=O)c1c(C)c(C(=O)Nc2ccc(F)c(C#N)c2)n(C)c1C)C1COC1 [Compound 57],< 1

# Same assay, conditions: Hepatitis B virus; HBV DNA inhibition, HepG2.2.15 cells, extracellular HBV DNA by qPCR; read-out: EC50
row,Structure (SMILES),EC50 [nM]
1,"C=CC1(NC(=O)C(=O)c2c(Cl)c(C(=O)Nc3ccc(F)c(C#N)c3)n(C)c2C)CC(F)(F)C1 [Compound 51, 3-chloro-N-(3-cyano-4-fluoro-phenyl)-4-[2-[(3,3-difluoro-1-vinyl-cyclobutyl)amino]-2-oxo-acetyl]-1,5-dimethyl-pyrrole-2-carboxamide]",< 1
2,"C#CC1(NC(=O)C(=O)c2c(Cl)c(C(=O)Nc3ccc(F)c(C#N)c3)n(C)c2C)CC(F)(F)C1 [Compound 52, 3-chloro-N-(3-cyano-4-fluoro-phenyl)-4-[2-[(1-ethynyl-3,3-difluoro-cyclobutyl)amino]-2-oxo-acetyl]-1,5-dimethyl-pyrrole-2-carboxamide]",< 1
3,"C=CC1(NC(=O)C(=O)c2c(C)c(C(=O)Nc3ccc(F)c(C#N)c3)n(C)c2C)CC(F)(F)C1 [Compound 53, N-(3-cyano-4-fluoro-phenyl)-4-[2-[(3,3-difluoro-1-vinyl-cyclobutyl)amino]-2-oxo-acetyl]-1,3,5-trimethyl-pyrrole-2-carboxamide]",1 to 10
4,"C#CC1(NC(=O)C(=O)c2c(F)c(C(=O)Nc3ccc(F)c(C#N)c3)n(C)c2C)COC1 [Compound 55, N-(3-cyano-4-fluoro-phenyl)-4-[2-[(3-ethynyloxetan-3-yl)amino]-2-oxo-acetyl]-3-fluoro-1,5-dimethyl-pyrrole-2-carboxamide]",< 1
5,"C#CC1(NC(=O)C(=O)c2c(F)c(C(=O)Nc3ccc(F)c(C#N)c3)n(C)c2C)CC(F)(F)C1 [Compound 56, N-(3-cyano-4-fluoro-phenyl)-4-[2-[(1-ethynyl-3,3-difluoro-cyclobutyl)amino]-2-oxo-acetyl]-3-fluoro-1,5-dimethyl-pyrrole-2-carboxamide]",< 1
6,"C#C[C@@H](NC(=O)C(=O)c1c(C)c(C(=O)Nc2ccc(F)c(C#N)c2)n(C)c1C)C1COC1 [Compound 58, N-(3-cyano-4-fluoro-phenyl)-1,3,5-trimethyl-4-[2-oxo-2-[[(1S)-1-(oxetan-3-yl)prop-2-ynyl]amino]acetyl]pyrrole-2-carboxamide]",1 to 10
7,"C#C[C@@H](CCO)NC(=O)C(=O)c1c(C)c(C(=O)Nc2ccc(F)c(C#N)c2)n(C)c1C [Compound 61a, N-(3-cyano-4-fluoro-phenyl)-1,3,5-trimethyl-4-[2-oxo-2-[[(1R)-1-(2-hydroxyethyl)prop-2-ynyl]amino]acetyl]pyrrole-2-carboxamide]",1 to 10
8,"C#C[C@H](CCO)NC(=O)C(=O)c1c(C)c(C(=O)Nc2ccc(F)c(C#N)c2)n(C)c1C [Compound 61b, N-(3-cyano-4-fluoro-phenyl)-1,3,5-trimethyl-4-[2-oxo-2-[[(1S)-1-(2-hydroxyethyl)prop-2-ynyl]amino]acetyl]pyrrole-2-carboxamide]",1 to 10
9,"Cc1c(C(=O)C(=O)NC2(C#CC(F)(F)F)CC(O)C2)c(C)n(C)c1C(=O)Nc1ccc(F)c(C#N)c1 (stereo not drawn) [Compound 62, N-(3-cyano-4-fluoro-phenyl)-4-[2-[[3-hydroxy-1-(3,3,3-trifluoroprop-1-ynyl)cyclobutyl]amino]-2-oxo-acetyl]-1,3,5-trimethyl-pyrrole-2-carboxamide]",100 to 1000
10,"C#C[C@](CO)(NC(=O)C(=O)c1c(C)c(C(=O)Nc2ccc(F)c(C#N)c2)n(C)c1C)C1CC1 [Compound 63a, N-(3-cyano-4-fluoro-phenyl)-1,3,5-trimethyl-4-[2-oxo-2-[[(1R)-1-cyclopropyl-1-(hydroxymethyl)prop-2-ynyl]amino]acetyl]pyrrole-2-carboxamide]",1 to 10
11,"C#C[C@@](CO)(NC(=O)C(=O)c1c(C)c(C(=O)Nc2ccc(F)c(C#N)c2)n(C)c1C)C1CC1 [Compound 63b, N-(3-cyano-4-fluoro-phenyl)-1,3,5-trimethyl-4-[2-oxo-2-[[(1S)-1-cyclopropyl-1-(hydroxymethyl)prop-2-ynyl]amino]acetyl]pyrrole-2-carboxamide]",1 to 10
12,"C#C[C@](C)(CO)NC(=O)C(=O)c1c(C)c(C(=O)Nc2ccc(F)c(C#N)c2)n(C)c1C [Compound 64a, N-(3-cyano-4-fluoro-phenyl)-1,3,5-trimethyl-4-[2-oxo-2-[[(1R)-1-(hydroxymethyl)-1-methyl-prop-2-ynyl]amino]acetyl]pyrrole-2-carboxamide]",1 to 10
13,"C#C[C@@](C)(CO)NC(=O)C(=O)c1c(C)c(C(=O)Nc2ccc(F)c(C#N)c2)n(C)c1C [Compound 64b, N-(3-cyano-4-fluoro-phenyl)-1,3,5-trimethyl-4-[2-oxo-2-[[(1S)-1-(hydroxymethyl)-1-methyl-prop-2-ynyl]amino]acetyl]pyrrole-2-carboxamide]",1 to 10
14,"C#C[C@](CO)(NC(=O)C(=O)c1c(C)c(C(=O)Nc2ccc(F)c(C(F)(F)F)c2)n(C)c1C)C1CC1 [Compound 65a, N-[4-fluoro-3-(trifluoromethyl)phenyl]-1,3,5-trimethyl-4-[2-oxo-2-[[(1R)-1-cyclopropyl-1-(hydroxymethyl)prop-2-ynyl]amino]acetyl]pyrrole-2-carboxamide]",< 1
15,"C#C[C@@](CO)(NC(=O)C(=O)c1c(C)c(C(=O)Nc2ccc(F)c(C(F)(F)F)c2)n(C)c1C)C1CC1 [Compound 65b, N-[4-fluoro-3-(trifluoromethyl)phenyl]-1,3,5-trimethyl-4-[2-oxo-2-[[(1S)-1-cyclopropyl-1-(hydroxymethyl)prop-2-ynyl]amino]acetyl]pyrrole-2-carboxamide]",1 to 10
16,"C#C[C@](C)(CO)NC(=O)C(=O)c1c(C)c(C(=O)Nc2ccc(F)c(C(F)(F)F)c2)n(C)c1C [Compound 66a, (R)—N-(4-fluoro-3-(trifluoromethyl)phenyl)-4-(2-((1-hydroxy-2-methylbut-3-yn-2-yl)amino)-2-oxoacetyl)-1,3,5-trimethyl-1H-pyrrole-2-carboxamide]",< 1
17,"C#C[C@@](C)(CO)NC(=O)C(=O)c1c(C)c(C(=O)Nc2ccc(F)c(C(F)(F)F)c2)n(C)c1C [Compound 66b, (S)—N-(4-fluoro-3-(trifluoromethyl)phenyl)-4-(2-((1-hydroxy-2-methylbut-3-yn-2-yl)amino)-2-oxoacetyl)-1,3,5-trimethyl-1H-pyrrole-2-carboxamide]",1 to 10
18,"C#CC1(NC(=O)C(=O)c2c(C)c(C(=O)Nc3ccnc(F)c3Br)n(C)c2C)COC1 [Compound 67, N-(3-bromo-2-fluoro-4-pyridyl)-4-[2-[(3-ethynyloxetan-3-yl)amino]-2-oxo-acetyl]-1,3,5-trimethyl-pyrrole-2-carboxamide]",10 to 100
19,"C#CC1(NC(=O)C(=O)c2c(C)c(C(=O)Nc3ccnc(F)c3Br)n(C)c2C)CC(F)(F)C1 [Compound 68, N-(3-bromo-2-fluoro-4-pyridyl)-4-[2-[(1-ethynyl-3,3-difluoro-cyclobutyl)amino]-2-oxo-acetyl]-1,3,5-trimethyl-pyrrole-2-carboxamide]",< 1
20,"C=C[C@](C)(CO)NC(=O)C(=O)c1c(C)c(C(=O)Nc2ccc(F)c(C(F)(F)F)c2)n(C)c1C [Compound 69a, N-[4-fluoro-3-(trifluoromethyl)phenyl]-1,3,5-trimethyl-4-[2-oxo-2-[[(1R)-1-(hydroxymethyl)-1-methyl-allyl]amino]acetyl]pyrrole-2-carboxamide]",1 to 10
21,"C=C[C@@](C)(CO)NC(=O)C(=O)c1c(C)c(C(=O)Nc2ccc(F)c(C(F)(F)F)c2)n(C)c1C [Compound 69b, N-[4-fluoro-3-(trifluoromethyl)phenyl]-1,3,5-trimethyl-4-[2-oxo-2-[[(1S)-1-(hydroxymethyl)-1-methyl-allyl]amino]acetyl]pyrrole-2-carboxamide]",1 to 10
22,"Cc1c(C(=O)C(=O)NC(C)(C)c2cnn(C)c2)c(C)n(C)c1C(=O)Nc1ccc(F)c(C#N)c1 [Compound 70, N-(3-cyano-4-fluoro-phenyl)-1,3,5-trimethyl-4-[2-[[1-methyl-1-(1-methylpyrazol-4-yl)ethyl]amino]-2-oxo-acetyl]pyrrole-2-carboxamide]",1 to 10
23,"C#C[C@](CO)(NC(=O)C(=O)c1c(C)c(C(=O)Nc2ccc(F)c(C#N)c2)n(C)c1C)C(F)(F)F [Compound 71a, N-(3-cyano-4-fluoro-phenyl)-1,3,5-trimethyl-4-[2-oxo-2-[[(1R)-1-(hydroxymethyl)-1-(trifluoromethyl)prop-2-ynyl]amino]acetyl]pyrrole-2-carboxamide]",1 to 10
